Marks after values point to notes of the source that are not given here.
What was measured:
[1] = Water solubility (qualitative); type: physicochemical; settings: qualitative statement
Description: In all cases, the pKap values are smaller than those described by Fitch, as well as those cited in many biochemistry textbooks. The presence of fatty chains in arginine surfactants induces the formation of aggregates in which the positive charges are close to each other. As a result, the repulsion between these charges induces the release of protons, thus increasing the acid character of the compound. The cmc is mainly governed by the hydrophobic content of the molecules. For the same spacer chain, the cmc drastically decreases as the alkyl chain increases. For the same alkyl chain of 12 carbon atoms, the cmc slightly diminishes as the number of the methylene groups in the spacer increases. Unconventional aggregation behavior and two cmcs were inferred from different techniques. The first cmcs, inferred primarily from tension data, are between 0.002 and 0.005 mM. Fluorescence and conductivity experiments indicated a second cmc at concentrations two orders of magnitude higher than that from surface tension (0.3–0.6 mM). The low cmc obtained by surface tension measurements was ascribed to non-globular aggregates with small aggregation numbers larger than two or three, given the nearly constant surface tension above these cmc. The surface tension values at the first cmc were in the same order for all gemini surfactants. […]

[2] = system: Gram-positive and Gram-negative bacteria; assay: Minimum inhibitory concentration (MIC), broth microdilution; type: cell-based; settings: planktonic bacteria, 24 h at 37 °C, values only in Figure 2
Description: The Gram-positive bacteria tested include some problematic microorganisms such us L. monocytogenes; these bacteria cause listeriosis, a serious disease that has grown considerably in industrialized countries due to the increased ratio of immunosuppressed persons and the extensive use of refrigerated food. We have also tested the effectivity of these surfactants against methicillin-resistant Staphylococcus aureus (MRSA), which is known as a major cause of hospital-acquired infections and, at this time, is a remarkable public health problem. […] For comparison, this figure also includes the MIC values of a LAM (lauroyl arginine methyl ester) surfactant that can be considered the single-stranded homologue of these geminis and the BAC (benzalkonium ammonium chloride), a quaternary ammonium surfactant widely used as antiseptic.
Antimicrobial tests were carried out against the following microorganisms: Bacillus subtilis ATCC 6633, Staphylococcus epidermidis ATCC 12228, Staphylococcus aureus ATCC 29213, Listeria monocytogenes ATCC 15313, Enterococcus faecalis ATCC 29212, Escherichia coli ATCC 25922, Acinetobacter baumannii ATCC 19606, Klebsiella aerogenes ATCC 13048, methicillin-resistant Staphylococcus aureus ATCC 43300 and Pseudomonas aeruginosa PAO1. […] The growth of the microorganisms was determined visually after incubation for 24 h at 37 °C. […]

[3] = system: Pseudomonas aeruginosa PAO1 biofilm; assay: Biofilm eradication, crystal violet; type: cell-based; settings: P. aeruginosa PAO1, at 32 μg/mL
Method: (§1) The ability of these geminis to disperse and eradicate biofilms once formed on the propylene surfaces of the microtiter plates was evaluated using the same bacterial strains. […] The susceptibility of both biofilms against the tested surfactants was similar. At a low concentration of 32 μg/mL, C3(CA)2 and C3(LA)2 were able to eradicate around 60–70% of preformed biofilm; however, at this concentration, the […] hydrophobic compound, C3(OA)2, eradicated less than 30% of biofilm. At high concentrations, the eradication percentage is similar for all alkyl chains. […] In this case, at low concentrations, there is not a clear dependence between the antibiofilm properties and the spacer; however, at a high concentration, the best effectivity was obtained for the longer spacer chains.
(§2) Antibiofilm activity was assessed against biofilm-producing strains of methicillin-resistant Staphylococcus aureus (MRSA) ATCC 43300 and Pseudomonas aeruginosa PAO1. Biofilm inhibition and eradication capacities of the gemini surfactants were evaluated against adherent bacterial biofilms grown in 96-well microtiter plates. Bacteria were grown overnight in tryptic soy agar at 37 °C for 24 h. The bacteria were suspended in lysogeny broth with glucose (1%) at 1.5 × 10^8 CFU/mL.
(§3) Biofilm eradication procedure: For mature biofilm formation, 200 μL of the diluted bacterial suspension was added to each well in a 96-well microplate and incubated at 37 °C for 24 h. The wells were gently rinsed with phosphate-buffered saline (PBS) and 200 μL of the corresponding gemini surfactant solution was added to each well and incubated again at 37 °C for 24 h. Two-fold serial dilutions of the gemini surfactant were used (4–128 μg/mL). After the plates were air dried, the biofilms were stained with 50 μL of 0.1 of % crystal violet for 25 min. The plates were rinsed with water and then 150 μL of 96% ethanol containing 10% acetic acid was added to all 96-well plates to dissolve the remaining crystal violet-stained biofilm. The absorbance value was recorded at 570 nm. Each assay was conducted at least three times and the results were averaged.

[4] = system: methicillin-resistant Staphylococcus aureus (MRSA) ATCC 43300 biofilm; assay: Biofilm eradication, crystal violet; type: cell-based; settings: at 32 μg/mL
Method: as §1, §2, §3

[5] = design: method as in doi:10.1021/la981295l; settings: cited from earlier work
[6] = design: method as in doi:10.1021/la981295l; settings: cited from earlier work; remark: listed apart in the source
[7] = design: method as in doi:10.1021/la981295l; settings: cited from earlier work; remark: listed apart in the source
[8] = system: Collagenase from Clostridium histolyticum (ChC); assay: Collagenase inhibitory activity assay (FALGPA substrate); type: biochemical; settings: approximately 25 μg of sample in the reaction mixture, 15 min preincubation
Method: The inhibition of collagenase followed the methodology proposed by Thring et al.. First, a solution containing the surfactants at 1000 μg/mL was prepared. An aliquot of 40 μL of each sample was used in the assay. Collagenase from Clostridium histolyticum (ChC) was dissolved in tricine buffer (50 mM, pH 8.0) immediately before use at an initial concentration of 0.35 U/mL. The synthetic substrate N-[3- (2-furyl) acryloyl]-Leu-Gly-Pro-Ala (FALGPA) (40 μL) was dissolved in the kit buffer (60 μL) according to the supplier information. The samples of C3(LA)2, C6(LA)2 and C9(LA)2 were incubated with the enzyme for 15 min before the substrate addition. The final reaction mixture contained tricine buffer, 0.8 mM FALGPA, 0.1 U of ChC and approximately 25 μg of each surfactant. Ultrapure water was used as a negative control, while the positive control was EGCG solution, prepared at the same concentration of the surfactants. The absorbance at λ = 345 nm was measured immediately after the substrate incorporation and continuously during 20 min in kinetic mode using an Elx800 Microplate Reader Biotek® (Winooski, VT, USA). The collagenase inhibitory activity of each sample was determined in triplicate, according to the following equation:(1) Collagenase inhibitory activity %=A1−A2/A1×100 where A1 and A2 represent the absorbance in the absence and presence of sample, respectively.

[9] = biological target: porcine pancreatic elastase (Sus scrofa, UniProt P00772); assay: Elastase inhibitory assay; type: biochemical; settings: 40 µL of 1000 µg/mL stock; EGCG 250 μM
Method: The elastase inhibition was tested according to the method described by […] et al.. First, a stock solution of each surfactant at 1000 μg/mL was prepared in sterile ultrapure water. A stock solution of porcine pancreatic elastase at 3.33 mg/mL in sterile ultrapure water was also prepared. The substrate […] (Ala) 3-p-nitroanilide was dissolved in 0.2 mM Tris-HCl buffer solution (pH 8.0). The samples (40 μL) were then diluted and incubated together with the enzyme for 15 min prior to the substrate addition. Negative control was sterile ultrapure water, while EGCG (250 μM or 0.114 mg/mL) was used as the positive control. The absorbance at λ = 410 nm was measured immediately after the substrate addition and continuously during the next 2 h using an Elx800 Microplate Reader (Biotek®). […] The anti-elastase activity (in %), determined in triplicate, was calculated according to the following equation:(2) Elastase inhibitory activity %=A1-A2/A1×100 where A1 and A2 represent the absorbance in the absence and presence of the testing samples, respectively.

bovine hyaluronidase = assay: Hyaluronidase inhibitory activity; type: biochemical; settings: positive control
Method: The hyaluronidase inhibitory activity was performed according to the method used by Altinyay et al. with some modifications. Briefly, a work solution containing bovine hyaluronidase (7900 units/mL) in 0.1 M acetate buffer (pH 3.6) was prepared. Fifty microliters of the work solution were mixed 1:1 with the surfactants’ solution in 5% DMSO. For the negative control, 50 μL of 5% DMSO was used, while EGCG was used as positive control. After 20 min of incubation at 37 °C, 50 μL of calcium chloride (12.5 mM) was added to the mixture and again incubated for 20 min at 37 °C. At that point, 250 μL sodium hyaluronate (1.2 mg/mL) was added and incubated for 40 min at 37 °C. After incubation, the mixture was treated with 50 μL of 0.4 M NaOH and 100 μL of 0.2 M sodium borate and then incubated for 3 min in a boiling water bath. After cooling to room temperature, 1.4 mL of p-dimethylaminobenzaldehyde solution was added to the reaction mixture, being further incubated at 37 °C for 20 min. The resulting colored solution was measured at λ = 585 nm (PerkinElmer-Lambda 35, Brazil). The hyaluronidase inhibitory activity of each sample was calculated according to the following formula:(3) Hyaluronidase inhibitory activity %=A1−A2/A1×100 where A1 and A2 represent the absorbance in the absence and presence of the testing sample, respectively.

porcine pancreatic elastase, sequence (P00772 27-266): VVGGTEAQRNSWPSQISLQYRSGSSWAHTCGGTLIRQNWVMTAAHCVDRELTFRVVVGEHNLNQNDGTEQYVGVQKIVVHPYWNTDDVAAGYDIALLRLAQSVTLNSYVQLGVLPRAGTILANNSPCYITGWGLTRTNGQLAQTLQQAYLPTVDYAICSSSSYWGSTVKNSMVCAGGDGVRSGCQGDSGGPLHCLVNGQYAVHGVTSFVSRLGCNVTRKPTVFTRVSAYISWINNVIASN

SMILES | water solubility [1] | antimicrobial activity (MIC), in words [2] | preformed biofilm eradicated [3] | preformed biofilm eradicated [4] | CMC (mM) Conductivity [5] | CMC (mM) Fluorescence [6] | CMC (mM) Surface Tension [7] | γcmc ([7]; surface tension at the cmc) | anti-collagenase activity (inhibition) [8] | anti-elastase activity (inhibition) [9] | hyaluronidase inhibitory activity (bovine hyaluronidase)
CCCCCCCCCC(=O)NC(CCCNC(=N)N)C(=O)NCCCNC(=O)C(CCCNC(=N)N)NC(=O)CCCCCCCCC (centres unmarked) [C3(CA)2] | very good water solubility | most active against all tested microorganisms | 60–70% | 60–70% | 2 * mM | 3 * mM | 0.043 * mM | 32 * mN/m | – | – | –
O=C(O[C@@H]1Cc2c(O)cc(O)cc2O[C@@H]1c1cc(O)c(O)c(O)c1)c1cc(O)c(O)c(O)c1 [EGCG, epigalocatequin-3-galate, reference compound] | – | – | – | – | – | – | – | – | 54.2% | 67.3% | 13%

— article PMC10536132, “Arginine Gemini-Based Surfactants for Antimicrobial and Antibiofilm Applications: Molecular Interactions, Skin-Related Anti-Enzymatic Activity and Cytotoxicity” (Molecules, 2023)
